Data set [1] is described as follows: Stability in 1% human serum assessed as full length product after 10 mins. It is filed as ADME, cell-free.
The target of data set [2] is T1, Toll-like receptor 7 (Homo sapiens) (UniProt Q9NYK1).
T1 sequence (whole entry): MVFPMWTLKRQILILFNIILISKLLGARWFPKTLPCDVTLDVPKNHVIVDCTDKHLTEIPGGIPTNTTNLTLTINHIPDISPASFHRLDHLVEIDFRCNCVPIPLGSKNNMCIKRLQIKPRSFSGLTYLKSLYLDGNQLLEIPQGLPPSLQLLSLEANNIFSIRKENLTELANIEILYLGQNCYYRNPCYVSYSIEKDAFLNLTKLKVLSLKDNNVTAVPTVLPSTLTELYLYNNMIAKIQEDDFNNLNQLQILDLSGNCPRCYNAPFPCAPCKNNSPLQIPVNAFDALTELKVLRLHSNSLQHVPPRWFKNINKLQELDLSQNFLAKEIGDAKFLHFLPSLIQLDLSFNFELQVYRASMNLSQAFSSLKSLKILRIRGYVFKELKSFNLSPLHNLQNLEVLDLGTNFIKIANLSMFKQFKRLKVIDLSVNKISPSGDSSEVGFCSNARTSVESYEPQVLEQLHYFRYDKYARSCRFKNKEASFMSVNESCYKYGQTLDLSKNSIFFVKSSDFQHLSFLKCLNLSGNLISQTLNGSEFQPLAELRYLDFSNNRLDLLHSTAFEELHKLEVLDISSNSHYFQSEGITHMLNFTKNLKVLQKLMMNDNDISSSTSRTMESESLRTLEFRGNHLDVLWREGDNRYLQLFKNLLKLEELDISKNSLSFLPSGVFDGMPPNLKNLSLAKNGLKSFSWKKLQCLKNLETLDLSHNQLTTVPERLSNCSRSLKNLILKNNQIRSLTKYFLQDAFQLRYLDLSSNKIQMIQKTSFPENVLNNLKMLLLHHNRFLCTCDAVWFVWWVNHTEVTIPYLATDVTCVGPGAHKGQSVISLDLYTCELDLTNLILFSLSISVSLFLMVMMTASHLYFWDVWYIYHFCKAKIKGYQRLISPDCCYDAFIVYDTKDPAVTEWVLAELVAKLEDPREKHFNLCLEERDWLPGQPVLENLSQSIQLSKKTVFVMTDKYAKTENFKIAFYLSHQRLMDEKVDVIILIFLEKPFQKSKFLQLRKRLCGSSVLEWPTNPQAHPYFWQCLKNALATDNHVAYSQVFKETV
As to the kind of experiment: Activation of human TLR7 expressed in HEK293 cells assessed as increase in NF-kappaB activation at 100 ug/ml by SEAP assay. It is filed as cell-based.

The target of data set [3] is T2, Toll-like receptor 8 (Homo sapiens) (UniProt Q9NR97).
T2 sequence (whole entry): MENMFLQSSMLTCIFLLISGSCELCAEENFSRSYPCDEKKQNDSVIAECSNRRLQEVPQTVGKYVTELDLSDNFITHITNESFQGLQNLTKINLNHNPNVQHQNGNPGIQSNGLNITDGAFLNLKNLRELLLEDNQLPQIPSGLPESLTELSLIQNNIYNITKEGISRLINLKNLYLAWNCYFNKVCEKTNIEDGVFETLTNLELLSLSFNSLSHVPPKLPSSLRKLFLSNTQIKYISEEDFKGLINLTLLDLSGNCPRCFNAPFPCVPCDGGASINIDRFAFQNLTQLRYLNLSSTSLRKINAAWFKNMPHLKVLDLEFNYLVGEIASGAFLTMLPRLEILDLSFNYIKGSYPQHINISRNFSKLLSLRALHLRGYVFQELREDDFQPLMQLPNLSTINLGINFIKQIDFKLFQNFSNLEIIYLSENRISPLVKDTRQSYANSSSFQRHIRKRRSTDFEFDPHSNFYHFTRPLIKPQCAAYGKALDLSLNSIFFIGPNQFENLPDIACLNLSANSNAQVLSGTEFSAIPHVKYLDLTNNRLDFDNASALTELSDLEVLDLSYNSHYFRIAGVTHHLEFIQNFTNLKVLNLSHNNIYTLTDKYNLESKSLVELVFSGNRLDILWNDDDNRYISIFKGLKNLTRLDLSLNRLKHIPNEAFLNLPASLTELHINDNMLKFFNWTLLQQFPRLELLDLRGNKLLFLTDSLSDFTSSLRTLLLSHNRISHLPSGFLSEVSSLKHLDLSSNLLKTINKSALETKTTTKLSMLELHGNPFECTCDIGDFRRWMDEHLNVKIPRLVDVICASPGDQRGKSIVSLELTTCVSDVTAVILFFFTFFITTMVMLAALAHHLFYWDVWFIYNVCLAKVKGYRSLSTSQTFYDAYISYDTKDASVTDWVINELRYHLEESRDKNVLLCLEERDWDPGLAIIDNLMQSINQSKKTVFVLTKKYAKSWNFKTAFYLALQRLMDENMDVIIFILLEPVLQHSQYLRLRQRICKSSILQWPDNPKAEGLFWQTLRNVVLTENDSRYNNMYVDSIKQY
Nature of the data set: Activation of human TLR8 expressed in HEK293 cells assessed as increase in NF-kappaB activation at 100 ug/ml by SEAP assay. It is filed as cell-based.

Calls of active or inactive are those of the source. No cut-off for these calls is given here.

Take `Nc1ccn([C@@H]2O[C@H](COP(O)(=S)O[C@H]3[C@@H](O)[C@H](n4ccc(=O)[nH]c4=O)O[C@@H]3COP(O)(=S)O[C@H]3[C@@H](O)[C@H](n4ccc(N)nc4=O)O[C@@H]3COP(O)(=S)O[C@H]3[C@@H](O)[C@H](n4cnc5c(N)ncnc54)O[C@@H]3COP(O)(=S)O[C@H]3[C@@H](O)[C@H](n4cnc5c(=O)[nH]c(N)nc54)O[C@@H]3COP(O)(=S)O[C@H]3[C@@H](O)[C@H](n4ccc(=O)[nH]c4=O)O[C@@H]3COP(O)(=S)O[C@H]3[C@@H](O)[C@H](n4cnc5c(=O)[nH]c(N)nc54)O[C@@H]3COP(O)(=S)O[C@H]3[C@@H](O)[C@H](n4ccc(=O)[nH]c4=O)O[C@@H]3COP(O)(=S)O[C@H]3[C@@H](O)[C@H](n4cnc5c(=O)[nH]c(N)nc54)O[C@@H]3COP(O)(=S)O[C@H]3[C@@H](O)[C@H](n4ccc(=O)[nH]c4=O)O[C@@H]3COP(O)(=S)O[C@H]3[C@@H](O)[C@H](n4ccc(=O)[nH]c4=O)O[C@@H]3COP(O)(=S)O[C@H]3[C@@H](O)[C@H](n4cnc5c(=O)[nH]c(N)nc54)O[C@@H]3COP(O)(=S)O[C@H]3[C@@H](O)[C@H](n4ccc(=O)[nH]c4=O)O[C@@H]3COP(O)(=S)O[C@H]3[C@@H](O)[C@H](n4ccc(N)nc4=O)O[C@@H]3COP(O)(=S)O[C@H]3[C@@H](O)[C@H](n4ccc(=O)[nH]c4=O)O[C@@H]3COP(O)(=S)O[C@H]3[C@@H](O)[C@H](n4cnc5c(=O)[nH]c(N)nc54)O[C@@H]3COP(O)(=S)O[C@H]3[C@@H](O)[C@H](n4ccc(N)nc4=O)O[C@@H]3COP(O)(=S)O[C@H]3[C@@H](O)[C@H](n4ccc(N)nc4=O)O[C@@H]3COP(O)(=S)O[C@H]3[C@@H](O)[C@H](n4ccc(N)nc4=O)O[C@@H]3COP(O)(=S)O[C@H]3[C@@H](O)[C@H](n4cnc5c(=O)[nH]c(N)nc54)O[C@@H]3CO)[C@@H](O)[C@H]2O)c(=O)n1` (stereo partly specified): the remaining at 10 min in data set [1] (read-out: Stability) was found to be 47%. In data set [2], the result was inactive.
Regarding `Nc1ccn([C@@H]2O[C@H](CO)[C@@H](OP(O)(=S)OC[C@H]3O[C@@H](n4ccc(=O)[nH]c4=O)[C@H](O)[C@@H]3OP(O)(=S)OC[C@H]3O[C@@H](n4ccc(=O)[nH]c4=O)[C@H](O)[C@@H]3OP(O)(=S)OC[C@H]3O[C@@H](n4ccc(=O)[nH]c4=O)[C@H](O)[C@@H]3OP(O)(=S)OC[C@H]3O[C@@H](n4cnc5c(=O)[nH]c(N)nc54)[C@H](O)[C@@H]3OP(O)(=S)OC[C@H]3O[C@@H](n4cnc5c(=O)[nH]c(N)nc54)[C@H](O)[C@@H]3OP(O)(=S)OC[C@H]3O[C@@H](n4ccc(=O)[nH]c4=O)[C@H](O)[C@@H]3OP(O)(=S)OC[C@H]3O[C@@H](n4cnc5c(=O)[nH]c(N)nc54)[C@H](O)[C@@H]3OP(O)(=S)OC[C@H]3O[C@@H](n4ccc(=O)[nH]c4=O)[C@H](O)[C@@H]3OP(O)(=S)OC[C@H]3O[C@@H](n4cnc5c(=O)[nH]c(N)nc54)[C@H](O)[C@@H]3OP(O)(=S)OC[C@H]3O[C@@H](n4ccc(=O)[nH]c4=O)[C@H](O)[C@@H]3OP(O)(=S)OCC(O)COP(O)(=S)O[C@H]3[C@@H](O)[C@H](n4ccc(=O)[nH]c4=O)O[C@@H]3COP(O)(=S)O[C@H]3[C@@H](O)[C@H](n4cnc5c(=O)[nH]c(N)nc54)O[C@@H]3COP(O)(=S)O[C@H]3[C@@H](O)[C@H](n4ccc(=O)[nH]c4=O)O[C@@H]3COP(O)(=S)O[C@H]3[C@@H](O)[C@H](n4cnc5c(=O)[nH]c(N)nc54)O[C@@H]3COP(O)(=S)O[C@H]3[C@@H](O)[C@H](n4ccc(=O)[nH]c4=O)O[C@@H]3COP(O)(=S)O[C@H]3[C@@H](O)[C@H](n4cnc5c(=O)[nH]c(N)nc54)O[C@@H]3COP(O)(=S)O[C@H]3[C@@H](O)[C@H](n4cnc5c(=O)[nH]c(N)nc54)O[C@@H]3COP(O)(=S)O[C@H]3[C@@H](O)[C@H](n4ccc(=O)[nH]c4=O)O[C@@H]3COP(O)(=S)O[C@H]3[C@@H](O)[C@H](n4ccc(=O)[nH]c4=O)O[C@@H]3COP(O)(=S)O[C@H]3[C@@H](O)[C@H](n4ccc(=O)[nH]c4=O)O[C@@H]3COP(O)(=S)O[C@H]3[C@@H](O)[C@H](n4ccc(N)nc4=O)O[C@@H]3CO)[C@H]2O)c(=O)n1` (stereo partly specified), the remaining at 10 min in data set [1] (read-out: Activity) was 79%. The outcome in data set [3] was inactive.
With `Nc1ccn([C@@H]2O[C@H](COP(O)(=S)O[C@H]3[C@@H](O)[C@H](n4ccc(N)nc4=O)O[C@@H]3COP(O)(=S)O[C@H]3[C@@H](O)[C@H](n4cnc5c(=O)[nH]c(N)nc54)O[C@@H]3COP(O)(=S)O[C@H]3[C@@H](O)[C@H](n4ccc(N)nc4=O)O[C@@H]3COP(O)(=S)O[C@H]3[C@@H](O)[C@H](n4ccc(=O)[nH]c4=O)O[C@@H]3COP(O)(=S)O[C@H]3[C@@H](O)[C@H](n4cnc5c(N)ncnc54)O[C@@H]3COP(O)(=S)O[C@H]3[C@@H](O)[C@H](n4ccc(N)nc4=O)O[C@@H]3COP(O)(=S)O[C@H]3[C@@H](O)[C@H](n4cnc5c(N)ncnc54)O[C@@H]3COP(O)(=S)O[C@H]3[C@@H](O)[C@H](n4cnc5c(=O)[nH]c(N)nc54)O[C@@H]3COP(O)(=S)O[C@H]3[C@@H](O)[C@H](n4cnc5c(N)ncnc54)O[C@@H]3COP(O)(=S)O[C@H]3[C@@H](O)[C@H](n4cnc5c(N)ncnc54)O[C@@H]3CO)[C@@H](OP(O)(=S)OC[C@H]3O[C@@H](n4ccc(=O)[nH]c4=O)[C@H](O)[C@@H]3OP(O)(=S)OC[C@H]3O[C@@H](n4cnc5c(=O)[nH]c(N)nc54)[C@H](O)[C@@H]3OP(O)(=S)OC[C@H]3O[C@@H](n4cnc5c(=O)[nH]c(N)nc54)[C@H](O)[C@@H]3OP(O)(=S)OC[C@H]3O[C@@H](n4ccc(=O)[nH]c4=O)[C@H](O)[C@@H]3OP(O)(=S)OC[C@H]3O[C@@H](n4ccc(=O)[nH]c4=O)[C@H](O)[C@@H]3OP(O)(=S)OC[C@H]3O[C@@H](n4cnc5c(N)ncnc54)[C@H](O)[C@@H]3O)[C@H]2O)c(=O)n1` (stereo partly specified), the remaining at 10 min in data set [1] (read-out: Stability) is 1%. Moreover, the result in data set [2] was inactive.

For the origin of these results see ChEMBL document CHEMBL1156502, “Stabilized immune modulatory RNA compounds as agonists of Toll-like receptors 7 and 8” (Proc Natl Acad Sci U S A, 2007).
